Results published in EP2154155B1, “Analysis of agonist-activity and antagonist-activity to cytokinin receptor” (Sumitomo Chemical Company, Limited, priority 2001, dated 2002).

What was measured:
[1] = tested on: Arabidopsis thaliana cytokinin receptor AHK2, SEQ ID No: 2, expressed in transformed cell TM182-AHK2; assay: Agonist-activity search: optical density of TM182-AHK2 liquid culture in 96-well plate; type: cell-based; conditions: examinee substance 100 µM at the final concentration, DOLU + Glu medium, 30°C, 24 hours, DMSO blank 0.01
Protocol: (§2) The pre-cultured solutions were diluted with DOLU + Glu media as to become 0.100 as the optical density (OD600) and further the resultants were diluted with DOLU + Glu media at a dilution rate of 1/200 to obtain diluted pre-cultured solutions.
(§3) An assay plate was prepared by filling respective wells of a 96-well plate with 20 µl of solutions which were prepared by diluting DMSO solution (10mM) of each examinee substance with DOLU + Glu medium at a dilution rate of 1/100, said solutions containing each examinee substance to be 100 µM at the final concentration. Simultaneously, an assay plate only filled with 20 µl of solutions which were prepared by diluting DMSO solution with DOLU + Glu medium, said solutions containing no examinee substance, was prepared as the blank sections.
(§4) The diluted pre-cultured solutions were added in 200 µl each into the respective wells of both assay plates and cultured at 30°C for 24 hours and then the optical density (OD620) of each well was measured by a plate reader. The agonist-activity of the examinee substances to the cytokinin receptor was detected by comparing the optical density measured in the testing sections to which the examinee substances were added with the optical density measured in the blank sections.

[2] = tested on: Arabidopsis thaliana cytokinin receptor AHK3, SEQ ID No: 4, expressed in transformed cell TM182-AHK3; assay: Agonist-activity search: optical density of TM182-AHK3 liquid culture in 96-well plate; type: cell-based; conditions: examinee substance 100 µM at the final concentration, DOLU + Glu medium, 30°C, 24 hours, DMSO blank 0.51
Protocol: as §2, §3, §4

[3] = tested on: Arabidopsis thaliana cytokinin receptor AHK2 variant AHK2Δ (partially transmembrane region-deleted type, amino acid number 196 to 1176 of SEQ ID No: 2) …; assay: Agonist-activity search: optical density of TM182-AHK2Δ liquid culture in 96-well plate; conditions: examinee substance 100 µM at the final concentration, DOLU + Glu medium, 30°C, 24 hours, DMSO blank 0
Protocol: The transformed cells TM 182-CRE 1, TM182-AHK2,TM182-AHK2 Δ and TM182-AHK3 produced in the example 12 were inoculated in 200 ml of DOLU + Gal culture media and pre-cultured at 30°C for 36 hours. The pre-cultured solutions were diluted with DOLU + Glu media as to become 0.100 as the optical density (OD600) and further the resultants were diluted with DOLU + Glu media at a dilution rate of 1/200 to obtain diluted pre-cultured solutions.
An assay plate was prepared by filling respective wells of a 96-well plate with 20 µl of solutions which were prepared by diluting DMSO solution (10mM) of each examinee substance with DOLU + Glu medium at a dilution rate of 1/100, said solutions containing each examinee substance to be 100 µM at the final concentration. […]
as §4

[4] = tested on: Arabidopsis thaliana cytokinin receptor CRE1, SEQ ID No: 6, expressed in transformed cell TM182-CRE1; assay: Growth of transformed yeast cells TM182-CRE1 spotted on DOLU + Glu agar media containing cytokinin; type: cell-based; conditions: 30°C, 30 hours; for lowest observed supply concentration in which the transformed cells could be grown: DOLU + Glu agar media, cytokinin 1 nM to 100 µM
From the text: More particularly, for example, in the case of using a transformed cell (that is, a transformed cell having a function of directly controlling the cell growth by intracellular signal transduction from the cytokinin receptor) produced using TM182 (sln1 Δ) [Maeda T et al, Nature 369: 242-245 (1994)], a SLN1 genetically defected strain in which, for example, PTP2 Tyrosine phosphatase gene [Ota et al. Proc. N. A. Sci., USA, 89, 2355-2359 (1992)] is introduced as a host cell, the agonist-activity to the cytokinin receptor may be measured using, as an indicator, the quantity of the cell growth of the transformed cell in a culture medium (an agar culture medium or a liquid culture medium) containing glucose as a carbon source, for example, a DOLU + Glu culture medium. In the case of the DOLU + Glu culture medium to which the examinee substance is added, the examinee substance found capable of growing the transformed cell can be evaluated as a substance having the agonist-activity to the cytokinin receptor. On the other hand, in the case of the DOLU+Glu culture medium to which the examinee substance and a substance having the agonist-activity to the cytokinin receptor are added, the examinee substance found capable of suppressing or inhibiting the growth of the transformed cell can be evaluated as a substance having the antagonist-activity to the cytokinin receptor.
Transformation of TM182 (sln1Δ), SLN1 genetically detected strain, [Maeda T et al. Nature: 369 242-245 (1994)] was carried out using the obtained expression plasmid p415CYC-CRE1 (the example 5), p415CYC-AHK2 (the example 11), p415CYC-AHK2 Δ (the example 11) and p415CYC-AHK3 (the example 8). The transformation was carried out by employing Polyethylene glycol/lithium acetate (PEG/LiAc)-mediated transformation method according to the description of VII. Library Transformation & Screening Protocols disclosed in […] Two-Hybrid System 3 User Manual p.
After incubation, the growth state of the transformed cells was observed and photographed by a digital camera. […]

[5] = tested on: Arabidopsis thaliana cytokinin receptor AHK2, SEQ ID No: 2, expressed in transformed cell TM182-AHK2; conditions: 30°C, 30 hours
From the text: (§1) More particularly, for example, in the case of using a transformed cell (that is, a transformed cell having a function of directly controlling the cell growth by intracellular signal transduction from the cytokinin receptor) produced using TM182 (sln1 Δ) [Maeda T et al, Nature 369: 242-245 (1994)], a SLN1 genetically defected strain in which, for example, PTP2 Tyrosine phosphatase gene [Ota et al. Proc. N. A. Sci., USA, 89, 2355-2359 (1992)] is introduced as a host cell, the agonist-activity to the cytokinin receptor may be measured using, as an indicator, the quantity of the cell growth of the transformed cell in a culture medium (an agar culture medium or a liquid culture medium) containing glucose as a carbon source, for example, a DOLU + Glu culture medium. In the case of the DOLU + Glu culture medium to which the examinee substance is added, the examinee substance found capable of growing the transformed cell can be evaluated as a substance having the agonist-activity to the cytokinin receptor. On the other hand, in the case of the DOLU+Glu culture medium to which the examinee substance and a substance having the agonist-activity to the cytokinin receptor are added, the examinee substance found capable of suppressing or inhibiting the growth of the transformed cell can be evaluated as a substance having the antagonist-activity to the cytokinin receptor. […]

[6] = tested on: Arabidopsis thaliana cytokinin receptor AHK2 variant AHK2Δ (partially transmembrane region-deleted type, amino acid number 196 to 1176 of SEQ ID No: 2) …; assay: Growth of transformed yeast cells TM182-AHK2Δ spotted on DOLU + Glu agar media containing cytokinin; type: cell-based; conditions: 30°C, 30 hours
From the text: as §1

[7] = tested on: Arabidopsis thaliana cytokinin receptor AHK3, SEQ ID No: 4, expressed in transformed cell TM182-AHK3; conditions: DOLU + Glu agar media containing 10 µM of trans-zeatin, 30°C, 30 hours, compared with media containing no trans-zeatin
From the text: as §1

[8] = DOLU + Glu agar media, cytokinin 1 nM to 100 µM
[9] = DOLU + Glu agar media containing 10 µM of trans-zeatin, compared with media containing no trans-zeatin

CC1=CC(=O)CC(C)(C)[C@@]1(O)/C=C/C(C)=C\C(=O)O [Compound A, Abscisic acid]
optical density (OD620) of the culture solutions of the transformed cells [1]: 0.01 | optical density (OD620) of the culture solutions of the transformed cells [2]: 0.54

c1ccc(CNc2ncnc3nc[nH]c23)cc1 [Compound B, 6-Benzyl aminopurine]
optical density (OD620) of the culture solutions of the transformed cells [1]: 0.45 | optical density (OD620) of the culture solutions of the transformed cells [2]: 0.88 | optical density (OD620) of the culture solutions of the transformed cells [3]: 0.89

C/C(=C/CNc1ncnc2[nH]cnc12)CO [cis-zeatin]
lowest observed supply concentration in which the transformed cells could be grown [4]: no growth | lowest observed supply concentration in which the transformed cells could be grown [5, 8]: 10 µ M

C/C(=C\CNc1ncnc2[nH]cnc12)CO [trans-zeatin]
growth state of the transformed cells [4, 9]: high growth | lowest observed supply concentration in which the transformed cells could be grown [4]: 10 µ M | growth state of the transformed cells [5, 9]: high growth | growth state of the transformed cells [6, 9]: high growth | lowest observed supply concentration in which the transformed cells could be grown [6, 8]: 100 nM | growth state of the transformed cells [7]: high growth
